Tests used:
[1] = Time to emesis and survival after oral administration of pesticide with or without emetic (Example 27, Table 1); type: in vivo, Macaca fascicularis (Cynomolgus monkeys); conditions: for Animals in which emesis took place / Survival number after 14 days: 2 animals
[2] = in vivo; conditions: cynomolgus monkey, po
[3] = in vivo; cited from earlier work
[4] = cited from earlier work

With `CCOC(=O)CC(SP(=S)(OC)OC)C(=O)OCC` (stereo not drawn) [Malathion, S-[1,2-di(ethoxycarbonyl)ethyl] dimethyl phosphorothiolothionate] the “Animals in which emesis took place” value ([1]; Malathion only, 500 mg/kg) was 1, the “Survival number after 14 days” value ([1]; Malathion only, 500 mg/kg) was 0 and the LD50 [2] was 270 to 400 mg/kg.

For `CCOP(=S)(OCC)Oc1ccc([N+](=O)[O-])cc1` [Parathion, diethyl 4-nitrophenyl phosphorothionate], the Time to emesis ([1]; Parathion only, 200 mg/kg) was 1 h, the “Animals in which emesis took place” value ([1]; Parathion only, 200 mg/kg) was 1 and the “Survival number after 14 days” value ([1]; Parathion only, 200 mg/kg) was 0. It also gave an LD50 [2] of about 100 mg/kg.

In the case of `CN1CCc2cccc3c2[C@H]1Cc1ccc(O)c(O)c1-3` [apomorphine], the “Side effects of known emetic” value [3] is listed as “may induce protracted vomiting and shock” and the Stability in air [4] is listed as “unstable in air, oxidising readily”.

Source: patent US4269820A, “Safeguarded toxic chemical compositions containing effective emesis-inducing S-triazolo-[1,5-α]pyrimidine derivatives” (priority 1977, dated 1981)
